Laboratory results published in patent EP4722201A1, “3-PHENYLISOXAZOLINE-5-CARBOXAMIDE COMPOUND, AND PREPARATION METHOD THEREFOR, HERBICIDAL COMPOSITION THEREOF AND USE THEREOF” (Jiangsu Flag Chemical Industry Co., Ltd, priority 2023, dated 2024).

How the values were obtained:
Assay type in all cases: in vivo
Cyperus iria [1] = assay: Indoor herbicide activity determination, post-emergence (stem and leaf spray at 2-4 leaf stage); conditions: 504 h, determined 21 days later, read-out: Inhibition rate of fresh weight, Cyperus iria; for inhibition at 60 g/ha: 60 g a.i./ha; for inhibition at 30 g/ha: 30 g a.i./ha
Text: (§1) The testing method for herbicide activity of the compound of the present invention was as follows:
(§2) Post-emergence: an appropriate quantity of seeds of gramineous weeds (Echinochloa crusgalli, Eleusine indica, Digitaria sanguinalis, Alopecurus japonicus, Beckmannia syzigachne, Leptochloa chinensis, Polypogon fugax, Alopecurus aequalis, Lolium multiflorum, Poa annua, Aegilops tauschii, Avena fatua, Alopecurus myosuroides, Alopecurus japonicus and Alopecurus aequalis), broad-leaved weeds (Eclipta prostrata, Amaranthus retroflexus, Rorippa indica, Malachium aquaticum, Veronica polita, Conyza canadensis, Sesbania cannabina, Sagittariatrifolia and Schoenoplectiella juncoides), and Cyperus iria were sown in plastic pots having a diameter of 7 cm and holes at the bottom and filled with nutrient soil (sandy soil, pH 6.1, organic matter 1%) respectively, the seeds were covered with an appropriate amount of soil after being sown, then the soil was wetted with water from the bottom, the seeds were cultured in a constant-temperature illuminated culture room until a 2-4 leaf stage, and stems and leaves underwent spray treatment. After the treatment, the test materials were placed in a laboratory and cultured in the constant-temperature illuminated culture room after the liquid was naturally dry in the shade, and results were determined 21 days later. Inhibition rate of fresh weight % = (1−(fresh weight of treated plants)/(fresh weight of control plants)) × 100% [formula]

Digitaria sanguinalis [2] = assay: as above; conditions: 504 h, determined 21 days later, read-out: Inhibition rate of fresh weight, Digitaria sanguinalis; for inhibition at 60 g/ha: 60 g a.i./ha; for inhibition at 30 g/ha: 30 g a.i./ha
Text: as §1, §2

Eclipta prostrata [3] = assay: as above; conditions: 504 h, determined 21 days later, read-out: Inhibition rate of fresh weight, Eclipta prostrata; for inhibition at 60 g/ha: 60 g a.i./ha; for inhibition at 30 g/ha: 30 g a.i./ha
Text: as §1, §2

Alopecurus japonicus = assay: Indoor herbicide activity determination, Seed Treatment; pre-emergence (soil spray); conditions: for Herbicidal activities, Alopecurus japonicus (inhibition rate class): Dosage 240 g a.i./ha
Procedure, shortened: (§3)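 Weed seeds sown in 7 cm pots of sandy nutrient soil (pH 6.1, 1% organic matter), kept 24 h in a constant-temperature lit room, then soil sprayed by traveling spray tower (flow 390 mL/min). Fresh-weight inhibition % versus untreated controls scored 21 days later.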

Alopecurus myosuroides = assay: as above; conditions: Dosage 240 g a.i./ha
Procedure, shortened: as §3

Eleusine indica = assay: as above; conditions: for Herbicidal activities, Eleusine indica (inhibition rate class): Dosage 240 g a.i./ha
Procedure, shortened: as §3

Leptochloa chinensis = assay: as above; conditions: for Herbicidal activities, Leptochloa chinensis (inhibition rate class): Dosage 240 g a.i./ha
Procedure, shortened: as §3

Lolium multiflorum = assay: as above; conditions: Dosage 240 g a.i./ha
Procedure, shortened: as §3

Aegilops tauschii = assay: as above; conditions: 60 g a.i./ha, read-out: Herbicidal activities (inhibition rate) Aegilops tauschii
Procedure, shortened: as §3

Cyperus iria [4] = assay: as above; conditions: 60 g a.i./ha, read-out: Herbicidal activities (inhibition rate) Cyperus iria
Procedure, shortened: as §3

Digitaria sanguinalis [5] = assay: as above; conditions: 60 g a.i./ha, read-out: Herbicidal activities (inhibition rate) Digitaria sanguinalis
Procedure, shortened: as §3

Eclipta prostrata [6] = assay: as above; conditions: 60 g a.i./ha, read-out: Herbicidal activities (inhibition rate) Eclipta prostrata
Procedure, shortened: as §3

Row | SMILES | inhibition at 60 g/ha (Cyperus iria [1]) | inhibition at 60 g/ha (Digitaria sanguinalis [2]) | inhibition at 60 g/ha (Eclipta prostrata [3]) | Herbicidal activities, Alopecurus japonicus (inhibition rate class) (Alopecurus japonicus) | Herbicidal activities, Alopecurus myosuroides (inhibition rate class) (Alopecurus myosuroides) | Herbicidal activities, Eleusine indica (inhibition rate class) (Eleusine indica) | Herbicidal activities, Leptochloa chinensis (inhibition rate class) (Leptochloa chinensis) | Herbicidal activities, Lolium multiflorum (inhibition rate class) (Lolium multiflorum) | inhibition at 30 g/ha (Cyperus iria [1]) | inhibition at 30 g/ha (Digitaria sanguinalis [2]) | inhibition at 30 g/ha (Eclipta prostrata [3]) | inhibition at 60 g/ha (Aegilops tauschii) | Herbicidal activity (inhibition rate class), Alopecurus japonicus (Alopecurus japonicus; Dosage 120 g a.i./ha) | inhibition at 60 g/ha (Cyperus iria [4]) | inhibition at 60 g/ha (Digitaria sanguinalis [5]) | inhibition at 60 g/ha (Eclipta prostrata [6]) | Herbicidal activity (inhibition rate class), Eleusine indica (Eleusine indica; Dosage 120 g a.i./ha) | Herbicidal activity (inhibition rate class), Leptochloa chinensis (Leptochloa chinensis; Dosage 120 g a.i./ha)
1 | C=CC1(C(=O)N[C@H]2C[C@@H](C(=O)O)C2)CC(c2cc(F)cc(Cl)c2)=NO1 (mixture of isomers) [I-27] | 80 to 100% | 80 to 100% | 40 to 60% | A (A indicates that the inhibition rate was greater than or equal to 80% to 100%) | A (A indicates that the inhibition rate was greater than or equal to 80% to 100%) | A (A indicates that the inhibition rate was greater than or equal to 80% to 100%) | A (A indicates that the inhibition rate was greater than or equal to 80% to 100%) | A (A indicates that the inhibition rate was greater than or equal to 80% to 100%) |  |  |  |  |  |  |  |  |  | 
2 | C=CC1(C(=O)N[C@H]2C[C@@H](C(=O)OC)C2)CC(c2cc(F)cc(Cl)c2)=NO1 (mixture of isomers) [I-29] | 80 to 100% | 80 to 100% | 40 to 60% | A (A indicates that the inhibition rate was greater than or equal to 80% to 100%) | A (A indicates that the inhibition rate was greater than or equal to 80% to 100%) | A (A indicates that the inhibition rate was greater than or equal to 80% to 100%) | A (A indicates that the inhibition rate was greater than or equal to 80% to 100%) | A (A indicates that the inhibition rate was greater than or equal to 80% to 100%) |  |  |  |  |  |  |  |  |  | 
3 | C=CC1(C(=O)N[C@H]2C[C@@H](C(=O)O)C2)CC(c2cc(Cl)cc(Cl)c2)=NO1 (mixture of isomers) [I-37] | 80 to 100% | 80 to 100% | 60 to 80% | A (A indicates that the inhibition rate was greater than or equal to 80% to 100%) | A (A indicates that the inhibition rate was greater than or equal to 80% to 100%) | A (A indicates that the inhibition rate was greater than or equal to 80% to 100%) | A (A indicates that the inhibition rate was greater than or equal to 80% to 100%) | A (A indicates that the inhibition rate was greater than or equal to 80% to 100%) |  |  |  |  |  |  |  |  |  | 
4 | C=CC1(C(=O)N[C@H]2C[C@@H](C(=O)OC)C2)CC(c2cc(Cl)cc(Cl)c2)=NO1 (mixture of isomers) [I-39] | 80 to 100% | 80 to 100% | 60 to 80% | A (A indicates that the inhibition rate was greater than or equal to 80% to 100%) | A (A indicates that the inhibition rate was greater than or equal to 80% to 100%) | A (A indicates that the inhibition rate was greater than or equal to 80% to 100%) | A (A indicates that the inhibition rate was greater than or equal to 80% to 100%) | A (A indicates that the inhibition rate was greater than or equal to 80% to 100%) |  |  |  |  |  |  |  |  |  | 
5 | C=CC1(C(=O)N[C@H]2C[C@@H](C(=O)O)C2)CC(c2cc(F)cc(C(F)(F)F)c2)=NO1 (mixture of isomers) [I-49] | 80 to 100% | 60 to 80% | 60 to 80% | A (A indicates that the inhibition rate was greater than or equal to 80% to 100%) | A (A indicates that the inhibition rate was greater than or equal to 80% to 100%) | A (A indicates that the inhibition rate was greater than or equal to 80% to 100%) | A (A indicates that the inhibition rate was greater than or equal to 80% to 100%) | A (A indicates that the inhibition rate was greater than or equal to 80% to 100%) |  |  |  |  |  |  |  |  |  | 
6 | C=CC1(C(=O)N[C@H]2C[C@@H](C(=O)OC)C2)CC(c2cc(Cl)cc(C(F)(F)F)c2)=NO1 (mixture of isomers) [I-55] | 80 to 100% | 60 to 80% | 60 to 80% | A (A indicates that the inhibition rate was greater than or equal to 80% to 100%) | A (A indicates that the inhibition rate was greater than or equal to 80% to 100%) |  | A (A indicates that the inhibition rate was greater than or equal to 80% to 100%) | A (A indicates that the inhibition rate was greater than or equal to 80% to 100%) |  |  |  |  |  |  |  |  |  | 
7 | COC(=O)[C@H]1C[C@@H](NC(=O)C2(C(F)(F)F)CC(c3cc(Cl)cc(C(F)(F)F)c3)=NO2)C1 (relative stereo) [I-247] | 80 to 100% | 80 to 100% | 60 to 80% | A (A indicates that the inhibition rate was greater than or equal to 80% to 100%) | A (A indicates that the inhibition rate was greater than or equal to 80% to 100%) |  | A (A indicates that the inhibition rate was greater than or equal to 80% to 100%) | A (A indicates that the inhibition rate was greater than or equal to 80% to 100%) |  |  |  |  |  |  |  |  |  | 
8 | COC(=O)[C@H]1C[C@@H](NC(=O)C2(CF)CC(c3cc(F)cc(F)c3)=NO2)C1 (relative stereo) [I-310] | 80 to 100% | 80 to 100% | 60 to 80% | A (A indicates that the inhibition rate was greater than or equal to 80% to 100%) | A (A indicates that the inhibition rate was greater than or equal to 80% to 100%) |  | A (A indicates that the inhibition rate was greater than or equal to 80% to 100%) | A (A indicates that the inhibition rate was greater than or equal to 80% to 100%) |  |  |  |  |  |  |  |  |  | 
9 | C=C[C@]1(C(=O)N[C@H]2C=C[C@@H](C(=O)O)C2)CC(c2cc(F)cc(F)c2)=NO1 [CK1, reference compound] |  |  |  |  |  |  |  |  | 60 to 80% | 60 to 80% | < 20% |  |  |  |  |  |  | 
10 | C=C[C@]1(C(=O)N[C@H]2C=C[C@@H](C(=O)OC)C2)CC(c2cc(F)cc(F)c2)=NO1 [CK2, reference compound] |  |  |  |  |  |  |  |  | 60 to 80% | 60 to 80% | 20 to 40% |  |  |  |  |  |  | 
11 | C=C[C@]1(C(=O)N[C@H]2C=C[C@@H](C(=O)OC)C2)CC(c2cc(Cl)cc(C(F)(F)F)c2)=NO1 [I-477] |  |  |  |  |  |  |  |  | 80 to 100% | 60 to 80% |  | 80 to 100% | B (B indicates that the inhibition rate was greater than or equal to 60% to less than 80%) | 60 to 80% | 60 to 80% | 40 to 60% | A (A indicates that the inhibition rate was greater than or equal to 80% to 100%) | A (A indicates that the inhibition rate was greater than or equal to 80% to 100%)
